Data on 6 compounds can be found in BindingDB's records for patent US11896597 (Dizal (Jiangsu) Pharmaceutical, 2024).

The target in assay [1] is Epidermal growth factor receptor (Homo sapiens, UniProt P00533). The assay can be described thus: Potency Assessment EGFR (WT) and EGFR Mutants.
Experimental: (§1) The next day, tested compounds at a series of concentrations were added into each individual well of the plates, and the plates were incubated for 4 h at 37 C. with 5% CO2. […] The assay is an electrochemiluminescent method for determining both phosphorylated and total EGFR of cells with an MSD SECTOR Imager and the ratio of p-EGFR/total EGFR can be generated by the machine. The Her2 (Y1248) phosphorylation level (activity) of cells in each well were measured with MSD Kit named Phospho-ErbB2 (Tyr1248) Assay Whole Cell Lysate Kit according to the manufacturer's instruction (MESO SCALE DISCOVERY, Cat #K151CLD-3). The assay is an electrochemiluminescent method (MESO SCALE DISCOVERY) for determining both phosphorylated and total Her2 of cells with an MSD SECTOR Imager and then the ratio of p-Her2/total Her2 can be generated by the machine.
The target of assay [2] is Epidermal growth factor receptor [T790M,L858R] (Homo sapiens, UniProt P00533, L858R/T790M). Briefly: Potency Assessment EGFR (WT) and EGFR Mutants.
Sequence of Epidermal growth factor receptor [T790M,L858R] (P00533 25-1210 T790M/L858R limits assumed): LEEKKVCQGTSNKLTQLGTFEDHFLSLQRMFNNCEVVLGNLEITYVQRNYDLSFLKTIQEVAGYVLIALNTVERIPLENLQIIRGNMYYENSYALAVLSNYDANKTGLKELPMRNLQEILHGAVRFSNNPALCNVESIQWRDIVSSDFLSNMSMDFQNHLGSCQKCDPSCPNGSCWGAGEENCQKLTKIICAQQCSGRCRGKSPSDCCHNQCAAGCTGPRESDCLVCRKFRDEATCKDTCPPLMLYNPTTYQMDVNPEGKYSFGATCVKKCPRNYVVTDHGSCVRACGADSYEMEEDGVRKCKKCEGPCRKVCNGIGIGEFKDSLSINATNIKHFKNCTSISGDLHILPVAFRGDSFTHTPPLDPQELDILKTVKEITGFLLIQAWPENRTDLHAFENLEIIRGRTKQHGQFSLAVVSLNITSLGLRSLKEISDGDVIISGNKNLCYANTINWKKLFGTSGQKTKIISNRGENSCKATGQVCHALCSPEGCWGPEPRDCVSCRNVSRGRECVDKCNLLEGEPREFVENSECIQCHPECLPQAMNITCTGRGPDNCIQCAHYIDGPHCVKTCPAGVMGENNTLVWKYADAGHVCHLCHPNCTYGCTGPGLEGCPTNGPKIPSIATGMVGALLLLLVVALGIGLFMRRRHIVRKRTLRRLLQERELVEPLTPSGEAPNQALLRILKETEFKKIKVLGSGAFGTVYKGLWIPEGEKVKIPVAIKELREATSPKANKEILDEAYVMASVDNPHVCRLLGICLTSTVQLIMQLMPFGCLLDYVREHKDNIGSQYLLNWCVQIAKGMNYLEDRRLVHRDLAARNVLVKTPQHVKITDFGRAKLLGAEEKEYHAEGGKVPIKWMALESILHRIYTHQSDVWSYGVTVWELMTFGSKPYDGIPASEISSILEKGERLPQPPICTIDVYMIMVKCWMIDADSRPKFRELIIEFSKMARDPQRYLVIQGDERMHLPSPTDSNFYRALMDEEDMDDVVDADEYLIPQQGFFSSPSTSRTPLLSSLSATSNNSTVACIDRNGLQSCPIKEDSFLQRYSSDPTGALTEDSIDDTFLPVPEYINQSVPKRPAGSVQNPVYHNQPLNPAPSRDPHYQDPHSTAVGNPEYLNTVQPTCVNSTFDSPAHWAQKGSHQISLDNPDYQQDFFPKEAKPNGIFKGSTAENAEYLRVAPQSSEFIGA
Experimental: as §1

Sequence of Epidermal growth factor receptor (P00533 whole entry): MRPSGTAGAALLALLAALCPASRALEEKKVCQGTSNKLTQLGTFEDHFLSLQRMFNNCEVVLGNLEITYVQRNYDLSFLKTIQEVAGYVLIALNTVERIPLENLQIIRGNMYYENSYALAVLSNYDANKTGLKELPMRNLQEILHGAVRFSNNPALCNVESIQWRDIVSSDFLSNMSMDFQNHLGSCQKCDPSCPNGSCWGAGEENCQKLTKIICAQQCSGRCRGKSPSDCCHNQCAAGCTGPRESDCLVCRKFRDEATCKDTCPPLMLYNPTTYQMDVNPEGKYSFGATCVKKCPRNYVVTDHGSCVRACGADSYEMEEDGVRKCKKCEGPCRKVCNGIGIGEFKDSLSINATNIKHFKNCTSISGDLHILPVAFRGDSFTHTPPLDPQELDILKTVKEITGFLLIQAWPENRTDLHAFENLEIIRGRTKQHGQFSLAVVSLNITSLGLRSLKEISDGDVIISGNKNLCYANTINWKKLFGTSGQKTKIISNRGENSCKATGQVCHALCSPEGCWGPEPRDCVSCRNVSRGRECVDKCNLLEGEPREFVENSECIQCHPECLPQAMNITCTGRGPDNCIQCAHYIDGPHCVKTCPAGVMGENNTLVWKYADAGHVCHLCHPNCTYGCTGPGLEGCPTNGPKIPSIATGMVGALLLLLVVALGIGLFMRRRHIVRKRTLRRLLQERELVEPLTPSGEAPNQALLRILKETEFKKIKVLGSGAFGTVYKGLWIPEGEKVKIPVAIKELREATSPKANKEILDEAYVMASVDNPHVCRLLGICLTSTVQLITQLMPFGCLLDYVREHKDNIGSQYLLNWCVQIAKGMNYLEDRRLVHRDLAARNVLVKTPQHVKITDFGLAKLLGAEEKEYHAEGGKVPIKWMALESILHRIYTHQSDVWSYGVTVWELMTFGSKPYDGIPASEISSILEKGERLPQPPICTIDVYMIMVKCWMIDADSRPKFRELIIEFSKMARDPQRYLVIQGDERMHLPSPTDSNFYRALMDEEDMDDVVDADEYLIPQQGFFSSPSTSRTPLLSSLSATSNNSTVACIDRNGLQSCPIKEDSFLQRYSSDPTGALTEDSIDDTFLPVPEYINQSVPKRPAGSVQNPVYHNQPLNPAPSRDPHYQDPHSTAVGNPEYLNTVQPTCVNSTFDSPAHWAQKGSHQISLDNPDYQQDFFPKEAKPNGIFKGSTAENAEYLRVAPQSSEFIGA

Take `C=CC(=O)Nc1cc(Nc2ncnc(Nc3ccccc3C3(O)COC3)n2)c(OC)cc1N(C)CCN(C)C` [US11896597, Compound 10]: the IC50 amounted to 62.6 nM in assay [1] and 2.6 nM in assay [2].

Turning to `C=CC(=O)Nc1cc(Nc2ncnc(Nc3cc(F)c(F)cc3C(C)(C)O)n2)c(OC)cc1N(C)CCN1CCCCC1` [US11896597, Compound 24], the IC50 in assay [1] came out at 104 nM; in assay [2], 1 nM.

Consider `C=CC(=O)Nc1cc(Nc2ncnc(Nc3cnc(C)cc3C(C)(C)O)n2)c(OC)cc1N(C)CCN(C)C` [US11896597, Compound 6], for which the IC50 in assay [1] came out at 103 nM; in assay [2] it was 8.4 nM.

For `C=CC(=O)Nc1cc(Nc2ncnc(Nc3ccc(C)nc3C(C)(C)O)n2)c(OC)cc1N(C)CCN(C)C` [US11896597, Compound 7], the IC50 was found to be 88.1 nM in assay [1] and 1.7 nM in assay [2].

With `C=CC(=O)Nc1cc(Nc2nccc(Nc3cc(Cl)c(F)cc3C(C)(C)O)n2)c(OC)cc1N(C)C[C@H]1C[C@H](C)CN1C` [US11896597, Compound 90], the IC50 worked out at 357 nM in assay [1] and 1.4 nM in assay [2].

`C=CC(=O)Nc1cc(Nc2ncnc(Nc3ccc(C(F)(F)F)cc3C(C)(C)O)n2)c(OC)cc1N(C)CCN(C)C` [US11896597, Compound 13]: the figures for the IC50 in assay [1] and in assay [2] were 20.6 nM and 1.1 nM, respectively.
